According to patent US20070148684A1, “IMMUNOASSAY FOR HIV PROTEASE INHIBITORS” (priority 2000, published 2007):

System: saquinavir antiserum
Test: Assay specificity determination: competitive microtiter plate ELISA with saquinavir-BSA coated plate and saquinavir antiserum
Assay type: binding, sheep
Settings: for dose-response of optical density at 450 nm (competition for antiserum binding): serial three-fold dilutions of drug in PBS-TWEEN, antiserum 1:12,800, 62.5 ng/ml saquinavir-BSA coat
Experimental: Corning micro-ELISA plates (96 wells) were used throughout. The saquinavir-BSA conjugate was diluted to 2 μg/ml in 0.1 M sodium carbonate buffer, pH 9.5. One hundred microliters of the buffer was placed in the wells of each row of the plate except the first row. The first row was filled with 200 μL of the 2 μg/ml saquinavir-BSA solution, and a twelve-tip micropipettor was used to transfer 100 μl from the first row to the second row of all columns at the same time. Mixing of contents of the second row was accomplished by re-pipetting 3 times. One hundred microliters from the second row was then transferred to the third row and mixed. This was repeated to the last row of the plate. After mixing, 100 μl was removed from the last row and discarded. The plate was placed in a humidified Zip-Loc bag and incubated for 1 hour at 37° C. After incubation, the plate was removed from the incubator and bag and emptied into a waste container. PostCoat solution was added to each well in the amount of 200 μl. This solution consisted of 1% gelatin hydrolysate, 2% sucrose, 0.15 M Tris, pH 7.4, 0.17% TWEEN 20 (ICI Americas Inc.), and 0.02% Thimerosal preservative. All reagents were from Sigma Chemicals. The plate was returned to the humidified bag and placed in the incubator for 1 hour. Five minutes before the incubation was complete, Zymed rabbit anti-sheep IgG-HRP conjugate was diluted 1:2000 in PBS-TWEEN and vortexed gently to completely mix. Upon completion of the hour incubation, the plate was washed 4 times with 300 μl of PBS-TWEEN using a BioTek Instruments, Inc. EL404 plate washer. One hundred microliters of the diluted rabbit anti-sheep IgG-HRP conjugate was then pipetted into each well, the plate re-bagged and incubated for 1 hour. At the completion of the hour, the plate was removed from the incubator and bag and washed six times on the plate washer. One hundred microliters of K-BLUE enzyme substrate (Neogen, Inc.) was then added to each well and color allowed to develop in the dark for 5 minutes. Color development was halted by the addition of 100 μl of 1 N hydrochloric acid to each well. The optical density of each well was measured at two wavelengths, 405 nm and 450 nm using a Molecular Devices, Inc. ThermoMax plate reader. […] Therefore, the OD405 measurements were used to calculate the extrapolated OD450 by the well-known method of using a linear least squares regression of readings at both wavelengths. An ELISA plate was coated with the above concentrations of saquinavir-BSA using the same conditions as set forth above. While the plates were being PostCoated, serial three-fold dilutions of saquinavir, ritonavir, indinavir, and nelfinavir were prepared in a 1 ml capacity 96-well plate. All drugs were prepared at 1 mg/ml in absolute methanol and stored at 4° C. until used. […]

dose-response of optical density at 450 nm (competition for antiserum binding) | Structure (SMILES) | inhibition with respect to zero drug (lowest non-zero drug concentration in Example 5 (7 dilution steps)) | cross-reaction of the antiserum (relative to saquinavir, calculated from OD450 dose-response data)
dose-response curve | CC(C)(C)NC(=O)[C@@H]1C[C@@H]2CCCC[C@@H]2CN1C[C@@H](O)[C@H](Cc1ccccc1)NC(=O)[C@H](CC(N)=O)NC(=O)c1ccc2ccccc2n1 [saquinavir] | ~50% | 
lesser response | Cc1c(O)cccc1C(=O)N[C@@H](CSc1ccccc1)[C@H](O)CN1C[C@H]2CCCC[C@H]2C[C@H]1C(=O)NC(C)(C)C [nelfinavir] |  | 0.4%
